The series deals with newly emerged larvae of the blowfly, Lucilia sericata. Description: treated paper/serum bioassay, contact and/or ingestion activity against newly emerged blowfly larvae. The format is in vivo. Particulars: single compound. The method, then:
Contact and/or ingestion activities of compounds against newly emerged larvae of the blowfly, Lucilia sericata, are tested using a treated paper/serum bioassay. In this assay, test compounds diluted to the required concentrations in acetone are applied to filter paper discs and allowed to dry. Bovine serum and newly emerged blowfly larvae are added to the discs and mortality assessed at 24 and 48 hours.

The mark [1] stands for this setting: larval mortality assessed at 48 hours.

The values that follow come from patent US6479537B2, “Synergistic ectoparasiticidal methods and compositions” (American Cyanamid Company, priority 2000, dated 2002).

In brackets after ≈: the same amount, converted by molar mass. Several values for one entry are separate records, joined by “and”; a condition that tells them apart may be missing. Equal entries are not always repeated.

By LC50 is commonly meant the concentration that kills 50% of the test population.

As for moxidectin, under “larval mortality assessed at 24 hours”, the “Approximate LC50 24 hour” value is 1.54 µg/mL and 0.85 µg/mL. For the same molecule, the “Approximate LC50 48 hour” value under setting [1] was 0.80 µg/mL and 0.63 µg/mL.
In the case of `CCOCn1c(-c2ccc(Cl)cc2)c(C#N)c(Br)c1C(F)(F)F` [C, 4-bromo-2-(p-chlorophenyl)-1-(ethoxymethyl)-5-(trifluoromethyl)pyrrole-3-carbonitrile], for the setting “Lucilia sericata, 48 h, larval mortality assessed at 48 hours, read-out: Approximate LC50 48 hour”, the LC50 worked out at 2.5 µg/mL (≈ 6.13 µM). In addition, under setting [1], the “Approximate LC50 48 hour” value came out at 4.69 µg/mL.
